Laboratory results published in PMC7377239, “Cardiovascular Effects of Polychlorinated Biphenyls and Their Major Metabolites” (Environmental Health Perspectives, 2020).
Where a name gives a salt, the structure may show the parent alone. Read-outs that look alike come from different tables or passages of the source.

Legend:
[1] = tested on: iCell cardiomyocytes (human iPSC-derived cardiomyocytes); experiment: High-content imaging of cytotoxicity and mitochondrial integrity in iPSC-CMs; assay type: cell-based; conditions: Homo sapiens; for viability at 0.01 µM / activity at 0.01 µM / viability at 0.1 µM / activity at 0.1 µM / viability at 1 µM / activity at 1 µM / viability at 10 µM / activity at 10 µM / viability at 100 µM / activity at 100 µM: Cardiomyocyte, 0.00 µM = 100.00; for viability at 0.1 µM / activity at 0.1 µM: 0.10 µM; for minimal effective concentration: iPSC-CM
Method in brief: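 Cardiomyocytes grown on gelatinized 384-well plates received fresh medium on the experiment day and were then exposed to chemicals at 0.01–100μM. Nuclei and mitochondria were labeled with Hoechst 33342 and MitoTracker™ Orange, then fixed, and imaged on an ImageXpress® Micro Confocal system. Four-parameter logistic concentration–response fits in R, with a one-standard-deviation vehicle cutoff, gave point-of-departure values.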

HUVECs = experiment: High-content imaging cytotoxicity in HUVECs, 24 h; assay type: cell-based, human; conditions: Homo sapiens, HUVEC, 24 h, HUVECs; for viability at 0.01 µM / activity at 0.01 µM / viability at 0.1 µM / activity at 0.1 µM / viability at 1 µM / activity at 1 µM / viability at 10 µM / activity at 10 µM / viability at 100 µM / activity at 100 µM: 0.00 µM = 100.00; for viability at 0.1 µM / activity at 0.1 µM: 0.10 µM; for minimal effective concentration: top concentration 100.00 µM
Method in brief: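 Point-of-departure values come from four-parameter logistic fits of vehicle-normalized (0.5% DMSO) imaging readouts, cutoff one SD of vehicle means, 100μM where no concentration–response. Cells: HUVEC monolayers, passages 1–5, treated 24 h at 37°C, 5% CO2, then Hoechst 33342/MitoTracker Orange/calcein AM stained, imaged at 10×.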

[2] = 24 hr, read-out: huvec.cyto.24hr
[3] = 24 hr, read-out: huvec.mito.24hr
[4] = 24 hr, read-out: huvec.mitoint.24hr
[5] = 24 hr, read-out: huvec.nma.24hr
[6] = 24 hrs, read-out: huvec.tc.24hrs

O=S(=O)(O)Oc1cc(Cl)ccc1-c1ccccc1 [2-yl PCB 3 sulfate]
viability at 0.01 µM ([1]; 1.5 h, read-out: cm.cam.90min): 88.1% | activity at 0.01 µM ([1]; 1.5 h, read-out: cm.mii.90min): 116% | activity at 0.01 µM ([1]; 1.5 h, read-out: cm.mito.90min): 87.6% | viability at 0.01 µM ([1]; 1.5 h, read-out: cm.tc.90min): 88.3% | viability at 0.1 µM ([1]; 1.5 h, read-out: cm.cam.90min): 98.3% | activity at 0.1 µM ([1]; 1.5 h, read-out: cm.mii.90min): 105% | activity at 0.1 µM ([1]; 1.5 h, read-out: cm.mito.90min): 98.4% | viability at 0.1 µM ([1]; 1.5 h, read-out: cm.tc.90min): 98.4% | viability at 1 µM ([1]; 1.5 h, read-out: cm.cam.90min): 105% | activity at 1 µM ([1]; 1.5 h, read-out: cm.mii.90min): 88.6% | activity at 1 µM ([1]; 1.5 h, read-out: cm.mito.90min): 105% | viability at 1 µM ([1]; 1.5 h, read-out: cm.tc.90min): 105% | viability at 10 µM ([1]; 1.5 h, read-out: cm.cam.90min): 100% | activity at 10 µM ([1]; 1.5 h, read-out: cm.mii.90min): 96.5% | activity at 10 µM ([1]; 1.5 h, read-out: cm.mito.90min): 101% | viability at 10 µM ([1]; 1.5 h, read-out: cm.tc.90min): 101% | viability at 100 µM ([1]; 1.5 h, read-out: cm.cam.90min): 104% | activity at 100 µM ([1]; 1.5 h, read-out: cm.mii.90min): 81% | activity at 100 µM ([1]; 1.5 h, read-out: cm.mito.90min): 105% | viability at 100 µM ([1]; 1.5 h, read-out: cm.tc.90min): 105% | viability at 0.01 µM ([1]; 24 h, read-out: cm.cam.24hrs): 99.2% | activity at 0.01 µM ([1]; 24 h, read-out: cm.mii.24hrs): 94.5% | activity at 0.01 µM ([1]; 24 h, read-out: cm.mito.24hrs): 100% | viability at 0.01 µM ([1]; 24 h, read-out: cm.tc.24hrs): 101% | viability at 0.1 µM ([1]; 24 h, read-out: cm.cam.24hrs): 101% | activity at 0.1 µM ([1]; 24 h, read-out: cm.mii.24hrs): 102% | activity at 0.1 µM ([1]; 24 h, read-out: cm.mito.24hrs): 101% | viability at 0.1 µM ([1]; 24 h, read-out: cm.tc.24hrs): 101% | viability at 1 µM ([1]; 24 h, read-out: cm.cam.24hrs): 101% | activity at 1 µM ([1]; 24 h, read-out: cm.mii.24hrs): 102% | activity at 1 µM ([1]; 24 h, read-out: cm.mito.24hrs): 103% | viability at 1 µM ([1]; 24 h, read-out: cm.tc.24hrs): 101% | viability at 10 µM ([1]; 24 h, read-out: cm.cam.24hrs): 102% | activity at 10 µM ([1]; 24 h, read-out: cm.mii.24hrs): 85.7% | activity at 10 µM ([1]; 24 h, read-out: cm.mito.24hrs): 102% | viability at 10 µM ([1]; 24 h, read-out: cm.tc.24hrs): 102% | viability at 100 µM ([1]; 24 h, read-out: cm.cam.24hrs): 98.3% | activity at 100 µM ([1]; 24 h, read-out: cm.mii.24hrs): 91.6% | activity at 100 µM ([1]; 24 h, read-out: cm.mito.24hrs): 99.6% | viability at 100 µM ([1]; 24 h, read-out: cm.tc.24hrs): 98.5% | minimal effective concentration ([1]; 1.5 h, read-out: cm.cam.90min POD): 100 µM | minimal effective concentration ([1]; 1.5 h, read-out: cm.mii.90min POD): 7.39 µM | minimal effective concentration ([1]; 1.5 h, read-out: cm.mito.90min POD): 100 µM | minimal effective concentration ([1]; 1.5 h, read-out: cm.tc.90min POD): 100 µM | minimal effective concentration ([1]; 24 h, read-out: cm.cam.24hrs POD): 100 µM | minimal effective concentration ([1]; 24 h, read-out: cm.mii.24hrs POD): 100 µM | minimal effective concentration ([1]; 24 h, read-out: cm.mito.24hrs POD): 100 µM | minimal effective concentration ([1]; 24 h, read-out: cm.tc.24hrs POD): 100 µM | viability at 0.01 µM (HUVECs; [2]): 95% | activity at 0.01 µM (HUVECs; [3]): 93.7% | activity at 0.01 µM (HUVECs; [4]): 96.9% | activity at 0.01 µM (HUVECs; [5]): 100% | viability at 0.1 µM (HUVECs; [2]): 105% | activity at 0.1 µM (HUVECs; [3]): 105% | activity at 0.1 µM (HUVECs; [4]): 103% | activity at 0.1 µM (HUVECs; [5]): 95.3% | viability at 1 µM (HUVECs; [2]): 95% | activity at 1 µM (HUVECs; [3]): 94.6% | activity at 1 µM (HUVECs; [4]): 92.6% | activity at 1 µM (HUVECs; [5]): 95.4% | viability at 10 µM (HUVECs; [2]): 83.5% | activity at 10 µM (HUVECs; [3]): 83.3% | activity at 10 µM (HUVECs; [4]): 97.9% | activity at 10 µM (HUVECs; [5]): 97.9% | viability at 100 µM (HUVECs; [2]): 93% | activity at 100 µM (HUVECs; [3]): 92.1% | activity at 100 µM (HUVECs; [4]): 93.3% | activity at 100 µM (HUVECs; [5]): 96% | minimal effective concentration (HUVECs; 24 hr, read-out: huvec.cyto.24hr POD): 100 µM | minimal effective concentration (HUVECs; 24 hr, read-out: huvec.mito.24hr POD): 100 µM | minimal effective concentration (HUVECs; 24 hr, read-out: huvec.mitoint.24hr POD): 100 µM | minimal effective concentration (HUVECs; 24 hr, read-out: huvec.nma.24hr POD): 100 µM | viability at 0.01 µM (HUVECs; [6]): 95% | viability at 0.1 µM (HUVECs; [6]): 105% | viability at 1 µM (HUVECs; [6]): 95% | viability at 10 µM (HUVECs; [6]): 83.5% | viability at 100 µM (HUVECs; [6]): 93% | minimal effective concentration (HUVECs; 24 hrs, read-out: huvec.tc.24hrs POD): 100 µM
